The values below are quoted from earlier work in patent US5399696A, “Isoquinolinyl compounds which are intermediates” (Eli Lilly and Company, priority 1993, dated 1995).

This data set deals with AMPA receptor. The conditions noted are these: cited: LaPeillet et al.; cited from earlier work.

For `CC1=NN=C(c2ccc(N)cc2)c2cc3c(cc2C1)OCO3` [GKYI 52466], the “neuroprotection in rat global ischemia (in words)” value is “effective neuroprotective agent in rat global ischemia models”.
